Tests used:
Assay type in all cases: in vivo
[1] = tested on: Echinocloa crus-galli; assay: greenhouse test, post-emergence treatment, ECHCG; details: post-emergence
Source text: (§1) The culture containers used were plastic flowerpots containing loamy sand with approximately 3.0% of humus as the substrate. The seeds of the test plants were sown separately for each species.
(§2) For the post-emergence treatment, the test plants were first grown to a height of 3 to 15 cm, depending on the plant habit, and only then treated with the active ingredients which had been suspended or emulsified in water. For this purpose, the test plants were either sown directly and grown in the same containers, or they were first grown separately as seedlings and transplanted into the test containers a few days prior to treatment.
(§3) Depending on the species, the plants were kept at 10-25° C. or 20-35° C., respectively.
(§4) The test period extended over 2 to 4 weeks. During this time, the plants were tended, and their response to the individual treatments was evaluated.
(§5) Evaluation was carried out using a scale from 0 to 100. 100 means no emergence of the plants, or complete destruction of at least the aerial moieties, and 0 means no damage, or normal course of growth. A good herbicidal activity is given at values of at least 70 and a very good herbicidal activity is given at values of at least 85.
(§6) The plants used in the greenhouse experiments were of the following species: […]

[2] = tested on: Alopecurus myosuroides; assay: greenhouse test, post-emergence treatment, ALOMY; details: post-emergence
Source text: as §1, §2, §3, §4, §5, §6

[3] = tested on: Amaranthus retroflexus; assay: greenhouse test, post-emergence treatment, AMARE
Source text: as §1, §2, §3, §4, §5, §6

[4] = tested on: Avena fatua; assay: greenhouse test, post-emergence treatment, AVEFA
Source text: as §1, §2, §3, §4, §5, §6

[5] = tested on: Apera spica-venti; assay: greenhouse test, pre-emergence treatment, APESV
Source text: as §1
(§7) For the pre-emergence treatment, the active ingredients, which had been suspended or emulsified in water, were applied directly after sowing by means of finely distributing nozzles. The containers were irrigated gently to promote germination and growth and subsequently covered with transparent plastic hoods until the plants had rooted. This cover caused uniform germination of the test plants, unless this had been impaired by the active ingredients.
as §3, §4, §5, §6

[6] = tested on: Echinocloa crus-galli; assay: greenhouse test, pre-emergence treatment, ECHCG
Source text: as §1, §7, §3, §4, §5, §6

Compound | herbicidal activity ([3]; 2000 g/ha) | herbicidal activity ([1]; 2000 g/ha) | herbicidal activity ([2]; 2000 g/ha) | herbicidal activity ([5]; 2000 g/ha) | further results
Cc1cc(-c2nc(C3CC3)ncc2-c2ccccc2Cl)sn1 [Ex. 254] | – | – | – | – | herbicidal activity ([1]; 1000 g/ha): very good (a very good herbicidal activity is given at values of at least 85); herbicidal activity ([2]; 1000 g/ha): good (A good herbicidal activity is given at values of at least 70); herbicidal activity ([3]; 1000 g/ha): very good (a very good herbicidal activity is given at values of at least 85)
Brc1ccccc1-c1cnc(C2CC2)nc1-c1csc2ccccc12 [Ex. 47] | – | – | – | – | herbicidal activity ([3]; 1000 g/ha): very good (a very good herbicidal activity is given at values of at least 85)
Clc1ccccc1-c1cnc(C2CC2)nc1/C=C/c1c(Cl)ccc(Cl)c1Cl [Ex. 232] | very good (a very good herbicidal activity is given at values of at least 85) | – | – | – | –
Cc1occc1-c1nc(C2CC2)ncc1-c1ccccc1Br [Ex. 238] | very good (a very good herbicidal activity is given at values of at least 85) | very good (a very good herbicidal activity is given at values of at least 85) | – | – | –
Brc1ccccc1-c1cnc(C2CC2)nc1-c1cnco1 [Ex. 261] | – | – | – | – | herbicidal activity ([4]; 1000 g/ha): very good (a very good herbicidal activity is given at values of at least 85); herbicidal activity ([1]; 1000 g/ha): very good (a very good herbicidal activity is given at values of at least 85); herbicidal activity ([2]; 1000 g/ha): very good (a very good herbicidal activity is given at values of at least 85); herbicidal activity ([5]; 1000 g/ha): very good (a very good herbicidal activity is given at values of at least 85); herbicidal activity ([6]; 1000 g/ha): very good (a very good herbicidal activity is given at values of at least 85)
Clc1ccccc1-c1cnc(C2CC2)nc1C=C1CCC1 [Ex. 71] | – | good (A good herbicidal activity is given at values of at least 70) | very good (a very good herbicidal activity is given at values of at least 85) | very good (a very good herbicidal activity is given at values of at least 85) | herbicidal activity ([4]; 2000 g/ha): very good (a very good herbicidal activity is given at values of at least 85); herbicidal activity ([6]; 2000 g/ha): very good (a very good herbicidal activity is given at values of at least 85)
OCCc1nc(C2CC2)ncc1-c1ccccc1Cl [Ex. 255] | – | – | – | – | herbicidal activity ([3]; 500 g/ha): good (A good herbicidal activity is given at values of at least 70)
COC(=O)Cc1nc(C2CC2)ncc1-c1cc(F)ccc1Cl [Ex. 150] | very good (a very good herbicidal activity is given at values of at least 85) | very good (a very good herbicidal activity is given at values of at least 85) | good (A good herbicidal activity is given at values of at least 70) | very good (a very good herbicidal activity is given at values of at least 85) | herbicidal activity ([6]; 2000 g/ha): good (A good herbicidal activity is given at values of at least 70)
Cc1ncoc1-c1nc(C2CC2)ncc1-c1cc(F)ccc1Cl [Ex. 236] | – | very good (a very good herbicidal activity is given at values of at least 85) | very good (a very good herbicidal activity is given at values of at least 85) | very good (a very good herbicidal activity is given at values of at least 85) | herbicidal activity ([4]; 2000 g/ha): very good (a very good herbicidal activity is given at values of at least 85); herbicidal activity ([6]; 2000 g/ha): very good (a very good herbicidal activity is given at values of at least 85)
Cc1ncoc1-c1nc(C2CC2)ncc1-c1cc(C(F)(F)F)ccc1Br [Ex. 263] | – | – | – | – | herbicidal activity ([4]; 1000 g/ha): very good (a very good herbicidal activity is given at values of at least 85); herbicidal activity ([1]; 1000 g/ha): very good (a very good herbicidal activity is given at values of at least 85); herbicidal activity ([2]; 1000 g/ha): very good (a very good herbicidal activity is given at values of at least 85); herbicidal activity ([5]; 1000 g/ha): very good (a very good herbicidal activity is given at values of at least 85); herbicidal activity ([6]; 1000 g/ha): very good (a very good herbicidal activity is given at values of at least 85)
Cc1oc(C(C)C)nc1-c1nc(C2CC2)ncc1-c1ccccc1Cl [Ex. 283] | – | very good (a very good herbicidal activity is given at values of at least 85) | very good (a very good herbicidal activity is given at values of at least 85) | very good (a very good herbicidal activity is given at values of at least 85) | herbicidal activity ([4]; 2000 g/ha): very good (a very good herbicidal activity is given at values of at least 85); herbicidal activity ([6]; 2000 g/ha): good (A good herbicidal activity is given at values of at least 70)
OC1(c2nc(C3CC3)ncc2-c2ccccc2Cl)CCCC1 [Ex. 127] | very good (a very good herbicidal activity is given at values of at least 85) | – | – | – | –
COC(=O)C(O)Cc1nc(C2CC2)ncc1-c1ccccc1Cl (stereo not shown) [Ex. 129] | very good (a very good herbicidal activity is given at values of at least 85) | very good (a very good herbicidal activity is given at values of at least 85) | very good (a very good herbicidal activity is given at values of at least 85) | very good (a very good herbicidal activity is given at values of at least 85) | –
CCOC(=O)Cc1nc(OC)ncc1-c1ccccc1Cl [Ex. 226] | – | – | – | – | herbicidal activity ([3]; 500 g/ha): very good (a very good herbicidal activity is given at values of at least 85)
COc1ccc(-c2nc(C3CC3)ncc2-c2ccccc2Cl)cc1 [Ex. 164] | very good (a very good herbicidal activity is given at values of at least 85) | – | – | – | –
COC(=O)CCc1nc(C2CC2)ncc1-c1ccccc1Cl [Ex. 132] | good (A good herbicidal activity is given at values of at least 70) | very good (a very good herbicidal activity is given at values of at least 85) | – | – | –
OC1(Cc2nc(C3CC3)ncc2-c2ccccc2Cl)CCC1 [Ex. 65] | very good (a very good herbicidal activity is given at values of at least 85) | very good (a very good herbicidal activity is given at values of at least 85) | – | – | –
O=C(O)/C=C/c1nc(C2CC2)ncc1-c1ccccc1Cl [Ex. 131] | very good (a very good herbicidal activity is given at values of at least 85) | very good (a very good herbicidal activity is given at values of at least 85) | – | – | –
Clc1ccccc1-c1cnc(C2CC2)nc1-c1cncs1 [Ex. 245] | – | – | – | – | herbicidal activity ([4]; 1000 g/ha): very good (a very good herbicidal activity is given at values of at least 85); herbicidal activity ([1]; 1000 g/ha): very good (a very good herbicidal activity is given at values of at least 85); herbicidal activity ([2]; 1000 g/ha): very good (a very good herbicidal activity is given at values of at least 85); herbicidal activity ([5]; 1000 g/ha): very good (a very good herbicidal activity is given at values of at least 85); herbicidal activity ([6]; 1000 g/ha): good (A good herbicidal activity is given at values of at least 70)
Cc1nc(C)c(-c2nc(C3CC3)ncc2-c2cc(F)ccc2Cl)o1 [Ex. 284] | – | very good (a very good herbicidal activity is given at values of at least 85) | very good (a very good herbicidal activity is given at values of at least 85) | very good (a very good herbicidal activity is given at values of at least 85) | herbicidal activity ([4]; 2000 g/ha): very good (a very good herbicidal activity is given at values of at least 85); herbicidal activity ([6]; 2000 g/ha): very good (a very good herbicidal activity is given at values of at least 85)

From US11178871B2, “Herbicidal pyrimidine compounds” (BASF SE, priority 2016, dated 2021)
